In test [1] the test system is tyrosine hydroxylase (TH). As to the kind of experiment: Nurr1 regulated gene expression of TH in T98G cells (qPCR). Type of test: cell-based. The note with it: 16 h. The method, then:
(§1) . After 16 h of incubation the medium was removed, cells were washed with phosphate buffered saline (PBS) and after full aspiration of residual liquids immediately frozen at −80° C., until further procession. Total RNA was isolated using E.Z.N.A.® Total RNA Kit I (Omega Bio-tek. Norcross. USA) following the manufacturer's instructions. RNA concentration and purity was assessed using a NanoDrop™ One UV/VIS spectrophotometer (Thermo Fisher Scientific. Waltham. USA) at 260/280 nm. Right before reverse transcription (RT), RNA was linearized at a concentration of 133 ng/μL at 65° C., for 10 min and then immediately incubated on ice for at least 1 min. Reverse transcription was performed using 2 μg total RNA, 20 U Recombinant RNasin® Ribonuclease Inhibitor (Promega, Mannheim, Germany), 100 U SuperScript IV Reverse Transcriptase including 5× First Strand Buffer and 0.1 M dithiothreitol (Thermo Fisher Scientific, Waltham, USA), 3.75 ng linear acrylamide. […] Quantitative polymerase chain reaction (qPCR) was conducted using an Applied Biosystems™ QuantStudio 1 (Waltham, USA) and a SYBR green based detection method. […] PCR product specificity was evaluated using a melting curve analysis ranging from 65 to 95° C. […]
Background: Real-time PCR tracks product formation cycle by cycle.

For test [2], the system named is vesicular amino acid transporter 2 (VMAT2). The test is described as follows: Nurr1 regulated gene expression of VMAT2 in T98G cells (qPCR). The following applies: 16 h. Type of test: cell-based. The method, then:
as §1

In test [3] the test system is SH-SY5Y. The test is described as follows: Apoptosis assay in SH-SY5Y cells (TNFα and CHX). Type of test: cell-based, human. The following applies: pretreated 1 h, TNFα 50 ng/ml and CHX 20 μg/mL for 6 hours. The method, then: (§2) Cell viability was assessed by flow cytometry after staining the cells with Annexin V and a live/dead dye. Alive cells are defined as […].

In test [4] the test system is N2A. As to the kind of experiment: Apoptosis assay in N2A cells (TNFα and CHX). The class given is cell-based, murine. The note with it: pretreated 1 h, TNFα 50 ng/ml and CHX 20 μg/mL for 6 hours. The protocol: as §2
Test [5] relates to BDNF. As to the kind of experiment: Induction of BDNF in LPS-stimulated human PBMCs (ELISA). The class given is cell-based. The note with it: 3 μM, supernatant 14 h. A general note: ELISA stands for enzyme-linked immunosorbent assay.
The subject of test [6] is Nurr1 target genes. The test is described as follows: Microarray gene expression in stimulated human PBMCs. Type of test: cell-based. The note with it: anti-CD3/anti-CD28 stimulated human PBMCs, 20 h. The method, then:
Human PBMC isolation was performed similarly as described above. […] Four biological replicates were used per condition. Cells were detached from the cell culture plates by using MACS buffer, were washed with PBS and then resuspended in RLT buffer for subsequent RNA isolation with RNAeasy Mini Kit (Quiagen). 100 ng total RNA per sample were introduced into an RT-IVT reaction. Prior to RT-IVT, the total RNA samples were spiked with in-vitro synthesized polyadenylated transcripts (One-Color RNA Spike-In Mix, Agilent Technologies), which serves as an internal labeling control for linearity, sensitivity and accuracy. The spiked total RNA was reverse transcribed into cDNA and then converted into labeled cRNA by in vitro transcription (Low Input Quick-Amp Labeling Kit One-Color, Agilent Technologies) incorporating Cyanine-3-CTP. All steps were carried out according to the manufacturer's instructions. […] Afterwards, microarrays were washed with increasing stringency using Gene Expression Wash Buffers (Agilent Technologies) followed by drying with acetonitrile (SIGMA). […] Differential gene expression was identified by applying appropriate biostatistics to the data set. GeneSpring GX11 analysis software was used to normalize and analyze the raw data. […] The induced and repressed genes were further characterized for involvement in functional categories (biological processes, molecular functions, cellular components, protein classes and pathways) based on the PANTHER database.

Test [7] deals with neurofilament light polypeptide (NFL). The test is described as follows: Serum neurofilament (NFL) in Phase 2 study in relapsing-remitting multiple sclerosis, patients with no relapses. The class given is in vivo, human. The note with it: after 24 weeks, RRMS patients with no relapses. The protocol:
[…]. The study was carried out in accordance with current ICH E6 (Good Clinical Practice) guidelines and the EMA Reflection paper for laboratories that perform the analysis or evaluation of clinical trial samples (EMA/INS/GCP/532137/2010, 28 Feb. 2012). The sample analysis was performed on a Meso QuickPlex SQ 120 analyzer by an ECLIA technique using a validated method.
In order to confirm an effect of IMU-838 on the plasma levels of NFL the subgroup of patients with no relapses was investigated

Test [8] concerns NFL. The following applies: EXPAND, 12-month; cited from earlier work.
Test [9] concerns the target T1, hDHODH (Homo sapiens, UniProt Q02127).
T1 construct: measured using an N-terminally truncated recombinant hDHODH enzyme
As to the kind of experiment: in vitro inhibition of hDHODH. The class given is biochemical. The protocol:
The in vitro inhibition of hDHODH was measured using an N-terminally truncated recombinant hDHODH enzyme. Briefly, the hDHODH concentration was adjusted in a way that an average slope of approximately 0.2 AU/min served as the positive control (e.g., without inhibitor). The assay mixture contained 60 μM 2,6-dichloroindophenol, 50 μM decylubiquinone and 100 μM dihydroorotate. The hDHODH enzyme with or without at least six different concentrations of the compounds was added and measurements were performed in 50 mM TrisHCl, 150 mM KCl and 0.1% Triton X-100 at pH 8.0 and at 30° C. The reaction was started by adding dihydroorotate and measuring the absorption at 600 nm for 2 min. For the determination of the IC50 values, each data point was recorded in triplicate.

Test [10] addresses human Nurr1 (Homo sapiens, UniProt P43354). The test is described as follows: Hybrid Gal4-Nurr1 reporter gene assay in HEK293T cells. On the technique in general: A reporter such as luciferase makes a cellular process visible.
Experimental: Nurr1 modulation was determined in a Gal4 hybrid reporter gene assays in HEK293T cells (German Collection of Microorganisms and Cell Culture GmbH, DSMZ) using pFR-Luc (Stratagene, La Jolla, CA, USA; reporter), pRL-SV40 (Promega, Madison, WI, USA: internal control) and pFA-CMV-hNurr1-LBD, coding for the hinge region and ligand binding domain of the canonical isoform of human Nurr1. Cells were cultured in Dulbecco's modified Eagle's medium (DMEM), high glucose supplemented with 10% fetal calf serum (FCS), sodium pyruvate (1 mM), penicillin (100 U/mL), and streptomycin (100 μg/mL) at 37° C., and 5% CO2 and seeded in 96-well plates (3×10+ cells/well). […] Firefly luminescence was divided by Renilla luminescence and multiplied by 1000 resulting in relative light units (RLU) to normalize for transfection efficiency and cell growth. Fold activation was obtained by dividing the mean RLU of test compound by the mean RLU of the untreated control. All samples were tested in at least three biologically independent experiments in duplicates. For dose-response curve fitting and calculation of EC50 values, the equation “[Agonist] versus response (three parameters)” was used in GraphPad Prism (version 7.00, GraphPad Software, La Jolla, CA, USA).
Similarly as described in Part A, the Nurr1 modulation was determined in a Gal4 hybrid reporter gene assay at a fixed concentration of 3 μM.
The test system of test [11] is brain lesions. The note with it: animal model of RRMS; cited from earlier work.
For test [12], the system named is RRMS patients. The following applies: 12 weeks or 24 weeks; cited from earlier work.

“Also recorded” adds a separate entry of the source. Where a name gives a salt, the structure may show the parent alone.

human Nurr1, sequence (P43354 360-595 limits assumed): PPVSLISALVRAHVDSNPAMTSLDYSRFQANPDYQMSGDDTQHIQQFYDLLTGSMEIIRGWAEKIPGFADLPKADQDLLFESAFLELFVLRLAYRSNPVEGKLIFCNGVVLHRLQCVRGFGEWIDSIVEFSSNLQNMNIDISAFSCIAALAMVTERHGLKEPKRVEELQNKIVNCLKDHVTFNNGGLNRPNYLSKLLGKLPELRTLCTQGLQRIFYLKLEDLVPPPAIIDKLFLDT
T1 sequence (Q02127 29-395): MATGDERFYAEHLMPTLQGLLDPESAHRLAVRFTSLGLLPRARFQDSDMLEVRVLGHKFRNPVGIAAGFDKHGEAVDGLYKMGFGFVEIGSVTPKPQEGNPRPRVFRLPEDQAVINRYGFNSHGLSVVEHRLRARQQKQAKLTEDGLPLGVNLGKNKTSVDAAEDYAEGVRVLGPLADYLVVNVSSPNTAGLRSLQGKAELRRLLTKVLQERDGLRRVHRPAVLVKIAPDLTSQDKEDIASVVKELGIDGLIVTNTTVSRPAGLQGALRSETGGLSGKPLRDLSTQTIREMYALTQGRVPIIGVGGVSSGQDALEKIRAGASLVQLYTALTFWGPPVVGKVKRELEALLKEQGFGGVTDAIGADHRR

As for `COc1cccc(-c2ccc(NC(=O)C3=C(C(=O)O)CCC3)c(F)c2)c1` [Example 1, vidofludimus], the “gene expression on tyrosine hydroxylase (TH)” value in [1] was “dose-dependent gene expression”. Moreover, the “gene expression on vesicular amino acid transporter 2 (VMAT2)” value in [2] was “dose-dependent gene expression”.
On to `C#CCOc1cccc(-c2ccc(NC(=O)C3=C(C(=O)O)CCC3)c(F)c2)c1` [Example 3, 2-((3-Fluoro-3′-(prop-2-yn-1-yloxy)-[1,1′-biphenyl]-4-yl)carbamoyl)cyclopent-1-ene-1-carboxylic acid], for which, in [1], the “gene expression on tyrosine hydroxylase (TH)” value is given as “dose-dependent gene expression”. Further, in test [2], the “gene expression on vesicular amino acid transporter 2 (VMAT2)” value is given as “dose-dependent activation; also recorded: dose-dependent gene expression”. The “induction of apoptosis, SH-SY5Y” value in test [3] is recorded as “induction of apoptosis was reduced”. For the same compound, the “induction of apoptosis, N2A” value in test [4] is recorded as “induction of apoptosis was reduced”.
Turning to `COc1cccc(-c2ccc(NC(=O)C3=C(C(=O)O)CCC3)c(F)c2)c1` [IMU-838, vidofludimus calcium], the BDNF production result in test [5] is “BDNF is produced”. In test [6], the “Upregulation A2M” value is given as 1.6, the “Upregulation BHLHE41” value is 1.5, the “Upregulation CFB” value was found to be 2.4 and the “Upregulation HSD11B1” value amounted to 2.5. In addition, in [6], the “Upregulation LTA” value is listed as 2.0, the “Upregulation MARCO” value was found to be 2.6 and the “Upregulation NCAM” value was determined as 1.6. Moreover, the “mean change of NFL (reduction)” value in test [7] is on record as 18%.
As to `CCc1cc(/C(C)=N/OCc2ccc(C3CCCCC3)c(C(F)(F)F)c2)ccc1CN1CC(C(=O)O)C1` [siponimod], the “effect on neurofilament, non-active SPMS” value in test [8] is “little or no effect on neurofilament”.
In the case of `[2H]C([2H])([2H])Oc1cccc(-c2ccc(NC(=O)c3cscc3C(=O)O)cc2)c1` [6/50], in test [9], the IC50 was 100 to 1000 nM. In addition, in test [10], the EC50 is less than 100 nM and the “Nurr1 agonism max. fold activation (range)” value is reported as “++ (++: ≥2-fold to <3-fold)”.
Turning to `C/C(O)=C(\C#N)C(=O)Nc1ccc(C(F)(F)F)cc1` [teriflunomide, reference compound], the BDNF production entry in test [5] is given as “no effect”.
Regarding `[2H]C([2H])([2H])Oc1cccc(-c2c(F)c(F)c(NC(=O)c3ccsc3C(=O)NCC)c(F)c2F)c1` [6/15], the IC50 in test [9] was greater than 10000 nM. Further, in test [10], the EC50 was 100 to 1000 nM and the “Nurr1 agonism max. fold activation (range)” value is “+ (+: ≥1.3-fold to <2-fold)”.
For the compound `[2H]C([2H])([2H])Oc1cccc(-c2c(F)c(F)c(NC(=O)C3=C(C(=O)N(C)C)CC(F)(F)C3)c(F)c2F)c1` [6/27], the IC50 in test [9] is 1000 to 10000 nM. Also, in test [10], the EC50 was 1000 to 10000 nM and the “Nurr1 agonism max. fold activation (range)” value is “+ (+: ≥1.3-fold to <2-fold)”.
In the case of `COc1cccc(-c2ccc(NC(=O)C3=C(C(=O)O)CCC3)c(F)c2)c1` [vidofludimus calcium, vidofludimus calcium salt dihydrate], the “reduction in brain lesions vs control treatment” value in [11] is “greater reduction in brain lesions”. Moreover, in test [12], the “rate of confirmed disability worsening over time vs placebo” value is reported as “lower rate of confirmed disability worsening” and the “unique active brain lesions vs placebo” value was “significantly fewer unique active brain lesions”.

What is called IC50 is the concentration at which inhibition is half-maximal. The EC50 is the concentration needed to bring the measured effect to its halfway point. Read a low EC50 as an effect from little substance.

Source of the values: patent US20260130879A1 (IMMUNIC AG, priority 2023, published 2026).
